Test results from patent US12637464B2, “Tetracyclic compounds for treating brain disorders” (The Regents of the University of California, priority 2021, dated 2026).

Tested on: PSYLI2 cells
Test: PsychLight assays (agonist and antagonist mode)
Format: cell-based
Conditions: FIG. 3C-3E; agonist mode concentration-response, antagonist mode 1 μM
Experimental: PsychLight Assays. Psychlight assays were performed using a previously published method. Briefly, glass bottom 96-well plates were coated with 50 μg/mL of poly-D-lysine overnight at room temperature and then washed with Dulbecco's PBS. PSYLI2 cells were suspended in DMEM containing 10% FBS with 5% penicillin-streptomycin, plated at a density of 40,000 cells/well, and incubated (37° C., 5% CO2) for 24 h prior to each experiment. Immediately before an experiment, stock solutions of drugs in DMSO were diluted 1:100 in imaging media distributed across an empty 96-well plate (treatment plate) following a randomized plate map. The imaging media consisted of 1×HBSS containing […] and […]. […] Data were from 2 plates with 2-3 wells being analyzed per plate. […]
Once imaging was complete, the images were exported, and analyzed using a custom Python script. […] The mask was generated by calculating the average fluorescence intensity for the entire image and using that value as a threshold. […] The % ΔF/F values for each well were calculated using the following equation: […]
Once imaging was complete, the images were exported, and analyzed using a custom Python script. […] The mask was generated by calculating the average fluorescence intensity for the entire image and using that value as a threshold. […]

Compound: CCN(CC)C(=O)[C@H]1C=C2c3cccc4ccn(c34)C[C@@H]2N(C)C1 [(−)-JRT]
- hallucinogenic potential (psychLight): low hallucinogenic potential
